# Assay results published in patent US20230303497A1, “BENZYLAMINE OR BENZYL ALCOHOL DERIVATIVE AND USES THEREOF” (CHENGDU HYPERWAY PHARMACEUTICALS CO., LTD, priority 2020, published 2023).
# Columns and labels:
# human NaV1.8 ion channel = human NaV1.8 ion channel (Homo sapiens (Human), UniProt Q9Y5Y9); test: Compound inhibition activity on human NaV1.8 ion channel in HEK293 cells (whole-cell patch clamp); type: cell-based; conditions: 100 nm concentration, HEK293 cells, resting protocol; for inhibition at 0.1 µM: read-out: Inhibition ratio of compounds against Nav1.8 (Activity of inhibition)
# [1] = In vivo pharmacokinetic testing of compounds in rats; conditions: rat, male SD rats, single oral dose 100 mg/kg, plasma, VX-150 dosed as prodrug, active form analysed; for AUC: read-out: AUC; for Cmax: read-out: Cmax
# Description: Test Case 4: In Vivo Pharmacokinetic Testing of Compounds in Rats
# All SD rats in the test are male and are purchased from Shanghai Sippe-Bk Lab Animal Co., Ltd. Each compound is administered orally (100 mg/kg, 3 rats per group) at single dose to SD rats for pharmacokinetic study. The solutions are prepared on the same day of administration, e.g., the tested compound is suspended in 5% DMSO+95% saline, get vortexed for 2 min, and sonicated for 5 min to prepare a drug delivery system. The animals are fasted for 10-14 hours before oral administration, and resumed food 4 hours after administration. After oral administration by gavage in SD rats, pharmacokinetic samples are collected from jugular vein at the following time points: 0, 15 min, 30 min, 1 h, 2 h, 4 h, 6 h, 8 h and 24 h. Three whole blood samples are collected at each time point in a volume of about 0.2 mL and anticoagulated using sodium heparin. Blood samples are placed on ice immediately after collection and plasma is separated by centrifugation within 1 h (centrifugation conditions: 6800 rpm, 6 min, 2-8° C.). The collected plasma is stored in a −80° C. refrigerator prior to analysis.
# In pharmacokinetic tests in rat, the control compound VX-150 is a prodrug (WO2015089361, compound 9), after administration, analysis is performed to test its active form (WO2014120808, compound 10). The aforementioned in vitro pharmacological tests are performed using the active ingredient (WO2014120808, compound 10).
# hERG ion channels = hERG ion channels (Homo sapiens (Human), UniProt Q12809); test: Inhibition activity test on hERG ion channels in HEK293 cells (cardiac safety, patch clamp)
# Description: This experiment is used as a cardiac safety test of compound.
# The reagents are purchased from Sigma (St. Louis, MO) except NaOH and KOH for acid-base titration. Final concentrations of tested solutions are prepared on the testing day and dissolved in extracellular fluid. […] All the test solutions and the control solutions contain 0.3% DMSO. Intracellular fluid (mM) contains: K Aspartate, 130; MgCl2, 5; EGTA 5; HEPES, 10; Tris-ATP 4; pH 7.2 (KOH titration).
# Cells: all experiments is performed at room temperature. Each cell itself is taken as the corresponding control.
# Compounds are all perfused using a perfusion system that utilizes the gravity. At least two cells are tested per concentration. After current stabilization (or 5 minutes), the change in current magnitude before and after the use of the compound is compared to calculate the blocking effect of the compound.
# The method of operation is the same as that of the test compound.
# Electrophysiology: Transfer the Cells to the perfusion tank and perfuse with extracellular fluid. The intracellular fluid (mM) contains: K Aspartate, 130; MgCl2, 5; EGTA 5; HEPES, 10; Tris-ATP 4; pH 7.2 (KOH titration). The intracellular fluid is stored in small quantities in portions in a −80° C. refrigerator, and melt on the day of the experiment. Electrodes are drawn with PC-10 (Narishige, Japan). Recording is performed with whole-cell diaphragm clamp. Noise is filtered with one-fifth of the sampling frequency.
# This process is repeated every 20 seconds. The hERG tail current is the pure hERG current. The maximum tail current triggered by the second square wave is detected, and when the current is stabilized, the test compound is perfused. The strength of the block is calculated when the response is stabilized.
# NaV1.1 = NaV1.1 (Homo sapiens (Human), UniProt P35498); test: Selectivity test for Nav ion channel subtypes: NaV1.1 (HEK293, patch clamp); type: cell-based; conditions: 1 uM; HEK293 cells
# Description: (§1) Test Case 3: Compound Selectivity Test for Nav Ion Channel Subtypes
# (§2) The aim of this test is to investigate effect of compounds on human Na ion channel cells expressed in steady-state (NaV1.1, NaV1.3, NaV1.4, NaV1.5, NaV1.6, NaV1.7). After Na ion currents is stabilized, the effect can be obtained by comparing the magnitude of Na channel currents before and after the application of the compounds.
# (§3) The test compound is stored at a concentration of 9 mM in dimethyl sulfoxide (DMSO), and on the day of testing, dissolve in extracellular solution, then prepare to a screening concentration of 1 uM.
# (§4) All experiments are performed at room temperature. Each cell itself is taken as the corresponding control.
# (§5) At least one cell is tested per concentration.
# (§6) HEK293 cells steadily expressing NaV1.1-, NaV1.3-, NaV1.4-, NaV1.5-, NaV1.6-ion channels; CHO cells expressing steadily NaV1.7 ion channel.
# (§7) The intracellular fluid (mM) is: Aspartic acid, 140; MgCl2, 2; EGTA 11; HEPES, 10; pH 7.2 (CsOH titration). […] Electrodes are drawn with PC-10 (Narishige, Japan). Recording is performed with whole-cell diaphragm clamp.
# (§8) Cells are clamped at −80 mV and then depolarized to −10 mV with a sustained 10 ms square wave to obtain Na ion channel currents (see the FIGURE). This process is repeated every 5 seconds. […] The strength of the block is calculated after the response is stabilized.
# NaV1.3 = NaV1.3 (Homo sapiens (Human), UniProt Q9NY46); test: Selectivity test for Nav ion channel subtypes: NaV1.3 (HEK293, patch clamp); type: cell-based; conditions: 1 uM; HEK293 cells
# Description: as §1, §2, §3, §4, §5, §6, §7, §8
# NaV1.4 = NaV1.4 (Homo sapiens (Human), UniProt P35499); test: Selectivity test for Nav ion channel subtypes: NaV1.4 (HEK293, patch clamp); type: cell-based; conditions: 1 uM; HEK293 cells
# Description: as §1, §2, §3, §4, §5, §6, §7, §8
# NaV1.5 = NaV1.5 (Homo sapiens (Human), UniProt Q14524); test: Selectivity test for Nav ion channel subtypes: NaV1.5 (HEK293, patch clamp); type: cell-based; conditions: 1 uM; HEK293 cells
# Description: as §1, §2, §3, §4, §5, §6, §7, §8
# NaV1.6 = NaV1.6 (Homo sapiens (Human), UniProt Q9UQD0); test: Selectivity test for Nav ion channel subtypes: NaV1.6 (HEK293, patch clamp); type: cell-based; conditions: 1 uM; HEK293 cells
# Description: as §1, §2, §3, §4, §5, §6, §7, §8
# NaV1.7 = NaV1.7 (Homo sapiens (Human), UniProt Q15858); test: Selectivity test for Nav ion channel subtypes: NaV1.7 (CHO cells, patch clamp); type: cell-based; conditions: 1 uM
# Description: as §1, §2, §3, §4, §5, §6, §7, §8
# Chain of human NaV1.8 ion channel (Q9Y5Y9 whole entry): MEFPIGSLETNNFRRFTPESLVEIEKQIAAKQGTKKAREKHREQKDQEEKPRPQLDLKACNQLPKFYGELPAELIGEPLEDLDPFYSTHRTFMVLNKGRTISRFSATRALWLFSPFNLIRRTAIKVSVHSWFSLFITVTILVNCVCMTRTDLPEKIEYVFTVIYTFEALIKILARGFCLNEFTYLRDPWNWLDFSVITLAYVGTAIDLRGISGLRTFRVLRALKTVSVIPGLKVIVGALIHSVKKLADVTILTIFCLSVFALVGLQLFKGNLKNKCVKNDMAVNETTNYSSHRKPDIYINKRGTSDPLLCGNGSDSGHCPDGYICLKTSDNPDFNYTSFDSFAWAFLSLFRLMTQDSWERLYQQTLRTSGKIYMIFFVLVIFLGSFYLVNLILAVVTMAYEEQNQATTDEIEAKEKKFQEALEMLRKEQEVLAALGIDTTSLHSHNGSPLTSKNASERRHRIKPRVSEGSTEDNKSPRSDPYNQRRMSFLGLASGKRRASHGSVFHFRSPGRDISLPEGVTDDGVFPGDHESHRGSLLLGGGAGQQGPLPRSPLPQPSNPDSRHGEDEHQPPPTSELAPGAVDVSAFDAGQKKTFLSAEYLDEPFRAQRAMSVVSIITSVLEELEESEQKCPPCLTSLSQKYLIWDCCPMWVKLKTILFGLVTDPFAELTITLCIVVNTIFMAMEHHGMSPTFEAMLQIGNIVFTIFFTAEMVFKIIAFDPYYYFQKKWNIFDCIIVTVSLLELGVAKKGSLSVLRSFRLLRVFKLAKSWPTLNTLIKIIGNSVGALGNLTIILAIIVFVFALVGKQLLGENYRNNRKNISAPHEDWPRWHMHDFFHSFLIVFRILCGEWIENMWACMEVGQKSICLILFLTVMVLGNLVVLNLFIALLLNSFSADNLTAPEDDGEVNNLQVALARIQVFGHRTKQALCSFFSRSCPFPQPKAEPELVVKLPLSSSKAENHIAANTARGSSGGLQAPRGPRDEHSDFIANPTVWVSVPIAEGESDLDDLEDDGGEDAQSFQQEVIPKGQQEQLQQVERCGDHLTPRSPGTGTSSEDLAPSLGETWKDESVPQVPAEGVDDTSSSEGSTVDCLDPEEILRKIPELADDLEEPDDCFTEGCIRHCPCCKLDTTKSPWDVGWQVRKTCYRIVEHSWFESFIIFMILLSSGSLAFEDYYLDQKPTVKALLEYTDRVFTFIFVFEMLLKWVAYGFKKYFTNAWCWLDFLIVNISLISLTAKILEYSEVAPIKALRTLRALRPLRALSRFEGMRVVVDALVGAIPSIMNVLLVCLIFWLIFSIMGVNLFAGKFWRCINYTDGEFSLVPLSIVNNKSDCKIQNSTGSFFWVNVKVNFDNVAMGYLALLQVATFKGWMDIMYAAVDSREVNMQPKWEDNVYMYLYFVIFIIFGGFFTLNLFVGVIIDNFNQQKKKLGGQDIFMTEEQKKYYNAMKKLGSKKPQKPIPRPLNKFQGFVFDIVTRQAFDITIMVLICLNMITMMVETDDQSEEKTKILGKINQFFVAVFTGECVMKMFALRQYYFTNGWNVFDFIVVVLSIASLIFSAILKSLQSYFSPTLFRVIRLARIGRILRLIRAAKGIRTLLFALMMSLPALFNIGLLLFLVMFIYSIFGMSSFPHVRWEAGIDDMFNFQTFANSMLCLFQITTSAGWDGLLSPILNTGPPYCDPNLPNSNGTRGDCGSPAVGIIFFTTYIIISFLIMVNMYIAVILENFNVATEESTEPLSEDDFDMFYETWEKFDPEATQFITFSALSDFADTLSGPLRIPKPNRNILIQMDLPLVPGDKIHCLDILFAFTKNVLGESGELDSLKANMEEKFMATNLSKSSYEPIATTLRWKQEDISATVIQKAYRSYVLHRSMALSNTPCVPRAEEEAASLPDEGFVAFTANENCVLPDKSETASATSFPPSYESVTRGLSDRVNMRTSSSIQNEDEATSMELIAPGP
# Chain of NaV1.5 (Q14524 whole entry): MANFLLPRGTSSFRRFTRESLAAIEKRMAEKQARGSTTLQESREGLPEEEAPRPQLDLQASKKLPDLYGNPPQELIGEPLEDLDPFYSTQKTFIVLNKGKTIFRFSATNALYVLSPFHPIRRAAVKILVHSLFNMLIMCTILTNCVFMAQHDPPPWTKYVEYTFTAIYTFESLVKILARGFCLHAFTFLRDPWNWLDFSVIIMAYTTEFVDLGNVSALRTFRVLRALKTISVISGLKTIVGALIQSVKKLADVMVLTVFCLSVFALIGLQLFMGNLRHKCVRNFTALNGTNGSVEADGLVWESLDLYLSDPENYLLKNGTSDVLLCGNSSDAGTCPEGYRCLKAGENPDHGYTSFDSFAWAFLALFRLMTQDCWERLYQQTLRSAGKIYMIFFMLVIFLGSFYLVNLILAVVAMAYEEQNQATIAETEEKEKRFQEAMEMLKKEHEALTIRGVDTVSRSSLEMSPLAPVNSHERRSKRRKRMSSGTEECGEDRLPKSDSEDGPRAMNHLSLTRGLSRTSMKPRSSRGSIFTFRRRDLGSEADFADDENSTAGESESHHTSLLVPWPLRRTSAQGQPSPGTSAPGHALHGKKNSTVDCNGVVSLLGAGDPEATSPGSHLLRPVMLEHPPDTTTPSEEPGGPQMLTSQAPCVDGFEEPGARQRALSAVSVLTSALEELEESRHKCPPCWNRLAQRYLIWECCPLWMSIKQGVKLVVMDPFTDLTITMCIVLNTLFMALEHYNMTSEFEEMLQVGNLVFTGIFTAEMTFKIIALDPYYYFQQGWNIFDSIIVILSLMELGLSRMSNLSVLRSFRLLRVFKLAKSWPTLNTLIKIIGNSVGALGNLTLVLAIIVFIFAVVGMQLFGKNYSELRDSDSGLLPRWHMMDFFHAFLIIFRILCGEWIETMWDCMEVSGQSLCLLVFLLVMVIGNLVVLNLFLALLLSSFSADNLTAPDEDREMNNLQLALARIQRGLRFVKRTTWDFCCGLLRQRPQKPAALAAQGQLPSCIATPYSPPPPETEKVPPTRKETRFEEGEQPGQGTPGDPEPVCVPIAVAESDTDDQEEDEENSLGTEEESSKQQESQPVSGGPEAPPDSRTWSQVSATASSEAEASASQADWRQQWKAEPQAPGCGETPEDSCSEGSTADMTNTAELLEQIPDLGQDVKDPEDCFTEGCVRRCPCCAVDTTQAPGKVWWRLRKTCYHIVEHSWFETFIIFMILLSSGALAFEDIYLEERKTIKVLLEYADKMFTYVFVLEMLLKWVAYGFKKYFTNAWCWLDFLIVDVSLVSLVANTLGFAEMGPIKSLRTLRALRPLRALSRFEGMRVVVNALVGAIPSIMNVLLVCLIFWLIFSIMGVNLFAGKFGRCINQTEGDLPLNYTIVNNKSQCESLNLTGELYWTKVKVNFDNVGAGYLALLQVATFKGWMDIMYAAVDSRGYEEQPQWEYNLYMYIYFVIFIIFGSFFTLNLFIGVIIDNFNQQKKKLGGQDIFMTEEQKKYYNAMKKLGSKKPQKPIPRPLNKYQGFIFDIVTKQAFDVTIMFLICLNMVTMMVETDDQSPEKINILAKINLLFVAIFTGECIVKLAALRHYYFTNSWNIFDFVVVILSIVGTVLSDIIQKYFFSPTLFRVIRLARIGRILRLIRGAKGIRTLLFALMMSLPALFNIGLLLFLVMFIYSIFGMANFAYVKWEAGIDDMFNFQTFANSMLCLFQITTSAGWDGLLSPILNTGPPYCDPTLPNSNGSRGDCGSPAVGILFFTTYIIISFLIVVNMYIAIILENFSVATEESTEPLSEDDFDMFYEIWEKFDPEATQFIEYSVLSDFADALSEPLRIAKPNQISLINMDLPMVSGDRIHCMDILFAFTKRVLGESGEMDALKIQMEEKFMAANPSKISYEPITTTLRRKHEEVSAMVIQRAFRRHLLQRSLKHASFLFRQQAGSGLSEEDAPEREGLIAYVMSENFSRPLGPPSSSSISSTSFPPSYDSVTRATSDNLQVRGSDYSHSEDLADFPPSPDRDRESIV
# Chain of hERG ion channels (Q12809 whole entry): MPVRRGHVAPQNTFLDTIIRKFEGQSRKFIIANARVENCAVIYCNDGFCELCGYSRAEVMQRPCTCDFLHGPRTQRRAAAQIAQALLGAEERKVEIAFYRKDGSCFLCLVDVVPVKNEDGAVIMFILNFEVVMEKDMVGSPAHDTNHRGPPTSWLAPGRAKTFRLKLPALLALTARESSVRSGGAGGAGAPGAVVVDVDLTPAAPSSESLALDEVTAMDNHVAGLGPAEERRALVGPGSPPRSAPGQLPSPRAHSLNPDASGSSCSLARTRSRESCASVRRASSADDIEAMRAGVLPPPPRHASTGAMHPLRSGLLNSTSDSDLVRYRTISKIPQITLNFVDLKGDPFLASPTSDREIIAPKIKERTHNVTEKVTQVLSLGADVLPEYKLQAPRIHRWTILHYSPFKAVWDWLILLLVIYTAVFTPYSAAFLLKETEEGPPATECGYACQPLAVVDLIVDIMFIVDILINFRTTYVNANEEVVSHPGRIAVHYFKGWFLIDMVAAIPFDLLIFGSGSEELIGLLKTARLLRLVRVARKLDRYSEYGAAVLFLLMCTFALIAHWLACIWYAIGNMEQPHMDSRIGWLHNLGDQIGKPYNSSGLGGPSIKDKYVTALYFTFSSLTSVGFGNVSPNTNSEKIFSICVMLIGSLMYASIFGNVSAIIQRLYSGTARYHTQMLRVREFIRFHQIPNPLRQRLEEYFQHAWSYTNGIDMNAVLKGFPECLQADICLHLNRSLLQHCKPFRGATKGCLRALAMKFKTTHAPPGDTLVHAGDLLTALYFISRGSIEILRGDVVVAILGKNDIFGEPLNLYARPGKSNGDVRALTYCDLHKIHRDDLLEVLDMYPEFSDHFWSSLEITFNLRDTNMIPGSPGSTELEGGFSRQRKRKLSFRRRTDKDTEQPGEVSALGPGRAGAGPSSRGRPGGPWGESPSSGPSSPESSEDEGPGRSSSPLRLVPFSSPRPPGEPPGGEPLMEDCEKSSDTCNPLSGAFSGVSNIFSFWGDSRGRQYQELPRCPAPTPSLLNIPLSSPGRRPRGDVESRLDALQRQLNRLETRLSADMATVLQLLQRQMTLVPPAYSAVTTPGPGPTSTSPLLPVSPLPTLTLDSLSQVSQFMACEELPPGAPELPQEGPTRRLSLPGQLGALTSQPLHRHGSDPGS
compound,measurement,setting,value
Cc1cc(F)ccc1Oc1cc(C(F)(F)F)ccc1C(=O)Nc1ccc(F)c(OCC(O)CNC(=O)CO)c1 (stereo not drawn) [Example 107],inhibition at 0.1 µM,human NaV1.8 ion channel,50 to 80%
Cc1cc(F)ccc1Oc1cc(C(F)(F)F)ccc1C(=O)Nc1ccnc(OC[C@H](O)CO)c1 [Example 108],inhibition at 0.1 µM,human NaV1.8 ion channel,50 to 80%
Cc1cc(F)ccc1Oc1cc(C(F)(F)F)ccc1C(=O)Nc1cnnc(OC[C@H](O)CO)c1 [Example 109],inhibition at 0.1 µM,human NaV1.8 ion channel,20 to 50%
Cc1cc(F)ccc1Oc1cc(C(F)(F)F)ccc1C(=O)Nc1ccc(F)c(OCC(O)CN)c1 (stereo not drawn) [Example 110],inhibition at 0.1 µM,human NaV1.8 ion channel,50 to 80%
Cc1cc(F)ccc1Oc1cc(C2CC2)c(C(F)(F)F)cc1C(=O)Nc1cnnc(OC[C@@H](O)CO)c1 [Example 111],inhibition at 0.1 µM,human NaV1.8 ion channel,50 to 80%
Cc1cc(F)ccc1Oc1cc(C2CC2)c(C(F)(F)F)cc1C(=O)Nc1cnnc(OC[C@H](O)CO)c1 [Example 112],inhibition at 0.1 µM,human NaV1.8 ion channel,20 to 50%
same,half-life,[1],6.3 h
same,AUC,[1],115 µg·h/mL
same,Cmax,[1],8270 ng/mL
"Cc1cc(F)ccc1Oc1cc(C(F)(F)F)c(Cl)cc1C(=O)Nc1ccnc(OC[C@@H](O)CO)c1 [Example 113, (S)-5-chloro-N-(2-(2,3-dihydroxypropoxy)pyridin-4-yl)-2-(4-fluoro-2-methylphenoxy)-4-(trifluoromethyl) benzamide]",inhibition at 0.1 µM,human NaV1.8 ion channel,> 80%
"Cc1cc(F)ccc1Oc1cc(C(F)(F)F)c(Cl)cc1C(=O)Nc1ccnc(OC[C@H](O)CO)c1 [Example 114, (R)-5-chloro-N-(2-(2,3-dihydroxypropoxy)pyridin-4-yl)-2-(4-fluoro-2-methylphenoxy)-4-(trifluoromethyl) benzamide]",inhibition at 0.1 µM,human NaV1.8 ion channel,> 80%
same,IC50,hERG ion channels,22.3 µM
same,Inhibition ratio on Nav1.1,NaV1.1,4.8%
same,Inhibition ratio on Nav1.3,NaV1.3,4.4%
same,Inhibition ratio on Nav1.4,NaV1.4,2.7%
same,Inhibition ratio on Nav1.5,NaV1.5,5.9%
same,Inhibition ratio on Nav1.6,NaV1.6,8.3%
same,Inhibition ratio on Nav1.7,NaV1.7,<1%
same,half-life,[1],11.7 h
same,AUC,[1],154 µg·h/mL
same,Cmax,[1],7640 ng/mL
Cc1cc(F)ccc1Oc1cc(C(F)(F)F)c(Cl)cc1C(=O)Nc1cnnc(OC[C@@H](O)CO)c1 [Example 115],inhibition at 0.1 µM,human NaV1.8 ion channel,50 to 80%
Cc1cc(F)ccc1Oc1cc(C(F)(F)F)c(Cl)cc1C(=O)Nc1ccc(F)c(OC[C@@H](O)CNC(=O)CO)c1 [Example 118],inhibition at 0.1 µM,human NaV1.8 ion channel,50 to 80%
COc1cc(F)ccc1Oc1cc(C(F)(F)F)c(Cl)cc1C(=O)Nc1ccnc(OC[C@H](O)CO)c1 [Example 120],inhibition at 0.1 µM,human NaV1.8 ion channel,> 80%
COc1cc(OC(F)(F)F)ccc1Oc1cc(C(F)(F)F)c(Cl)cc1C(=O)Nc1ccnc(OC[C@H](O)CO)c1 [Example 121],inhibition at 0.1 µM,human NaV1.8 ion channel,> 80%
Cc1cc(F)ccc1Oc1ccc(C(F)(F)F)cc1C(=O)Nc1ccnc(OC[C@H](O)CO)c1 [Example 122],inhibition at 0.1 µM,human NaV1.8 ion channel,50 to 80%
N-(3-(1-amino-3-fluoropropyl)-4-fluorophenyl)-4-cyclopropyl-2-(4-fluoro-2-methyl phenoxy)-5-(trifluoromethyl) benzamide [Example 21],Inhibition ratio of Nav1.8 (Activity of inhibition),human NaV1.8 ion channel,B (80 > B >= 50)
